Measured values taken from article PMC6941124 (International Journal of Molecular Sciences, 2019).
Numbering of substitutions follows the chain as printed.

Columns and labels:
HeLa CK1δ−/− cells = assay: MTT viability assay, HeLa CK1δ−/− cells; assay type: cell-based; details: 48 h; for Effects on cell viability of CK1δ−/− cells compared to parental and/or CK1δ+/+ cells: 25 μM
Method: (§1) Parental HeLa cells, as well as HeLa CSNK1D knock-out cells (CK1δ^−/−) (generated by CRISP/Cas9 technology and provided by EDIGENE, Beijing, China), were cultured in Dulbecco’s Modified Eagle medium (DMEM). HCT-116 and HT-29 colon cancer cells were cultured in McCoy’s 5A medium whereas SW480 and SW620 colon cancer cells were cultured in Leibovitz’s L-15 medium. All media were supplemented with 10% (v/v) fetal bovine serum (FBS), 100 units/mL penicillin, and 100 µg/mL streptomycin. DMEM-based medium for the culture of HeLa CSNK1D knock-out cells was additionally supplemented with 1 μg/mL puromycin. Cell cultures were maintained at 37 °C in a humidified atmosphere containing 5% CO2. Cells were transfected using Effectene transfection reagent (Qiagen, Hilden, Germany) according to the manufacturer’s instructions. For selection of stably transfected clones, transfected cells were grown in selective medium, containing 0.6 mg/mL of G-418 (Calbiochem-Merck Millipore, Darmstadt, Germany).
(§2) For performing MTT viability assays, cells were seeded in a 96-well plate (5 × 10^4 cells/well for HeLa cells (parental, CK1δ^−/−, or CK1δ^−/− cells stably transfected with wild type or mutant CK1δ), HCT-116, and HT-29 cells or 7.5 × 10^4 cell/well for SW480 and SW620 cells). After 24 h, old medium was replaced with fresh medium containing either the small molecule of interest or DMSO as control. After 48 h of treatment, 10 μL MTT (5 mg/mL) was added and incubated at 37 °C for 4 h. The medium was then gently removed and 100 μL of acidic isopropanol was added (90% (v/v) isopropanol, 10% (v/v) 1 N HCl). Cell culture plates were then shaken for 30 min at room temperature. Absorbance was measured at 570 nm with TriStar^2 LB942 Microplate Reader (Berthold Technologies, Bad Wildbad, Germany) and data analysis was performed using GraphPad Prism 6 (GraphPad Software, San Diego, CA, USA).

CK1δ R127Q = target: T1, CK1δ R127Q (Homo sapiens, UniProt P48730, R127Q); assay: in vitro kinase assay, CK1δ mutant R127Q; assay type: biochemical; details: 10 µM inhibitor, Figure 5b
T1 sequence (P48730 1-415 R127Q): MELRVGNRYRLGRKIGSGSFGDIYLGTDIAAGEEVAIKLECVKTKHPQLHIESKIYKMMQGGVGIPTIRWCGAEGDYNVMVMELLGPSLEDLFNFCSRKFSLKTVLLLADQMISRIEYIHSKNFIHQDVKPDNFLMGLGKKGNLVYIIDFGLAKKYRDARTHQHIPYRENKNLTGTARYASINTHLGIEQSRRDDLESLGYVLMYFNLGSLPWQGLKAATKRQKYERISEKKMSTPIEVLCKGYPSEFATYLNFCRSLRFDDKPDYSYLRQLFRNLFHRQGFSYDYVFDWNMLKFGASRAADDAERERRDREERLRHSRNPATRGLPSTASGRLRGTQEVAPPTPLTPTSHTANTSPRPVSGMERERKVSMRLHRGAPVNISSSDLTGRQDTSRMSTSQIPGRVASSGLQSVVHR
Method: (§3) Overexpression and purification of GST-CK1δ fusion proteins, either wild type or mutant, were performed as described previously.
(§4) Each kinase assay reaction was performed in kinase buffer (25 mM Tris-HCl (pH 7.5), 10 μM ATP, 10 mM MgCl2, 100 μM EDTA) in presence of purified GST-CK1δ kinase as source of enzyme (either wild type or mutant), an assay-specific substrate (α-casein, GST-p53^1−64, or GST-β-catenin^1−181), and radiolabeled ATP (2 μCi [γ-^32P]-ATP). For performing Michaelis–Menten analysis increasing substrate concentrations were used (α-casein: 0.39−25 μM; GST-p53^1−64: 0.09−1.87 μM; GST-β-catenin^1−181: 0.07−1.32 μM). For biological evaluation of small molecule inhibitors (SMIs), each inhibitor compound was either tested at 10 μM concentration for initial screening or by using a dilution series (0.005−10 µM) for determination of IC50 values. DMSO was used as control. Reactions were incubated for 30 min at 30 °C and reactions were stopped using 5x SDS-loading buffer (250 mM Tris-HCl [pH 6.8], 25% (v/v) β-mercaptoethanol (MSH), 50% (v/v) glycerol, 10% (w/v) SDS, 0.5% (w/v) bromphenol blue). Subsequently, samples were separated by SDS-PAGE using 12.5% acrylamide gels, stained with Coomassie, and phosphorylated substrates were visualized on X-ray film. Incorporation of radiolabeled phosphate was quantified by scintillation counting of Coomassie-stained substrate bands. Defined dilutions of the reaction master mix were counted as well in order to convert results obtained as counts per minute (CPM) to units of transferred phosphate in pmol/min. Michaelis–Menten analysis was performed using GraphPad Prism 6 (GraphPad Software, San Diego, CA, USA).

CK1α = CK1α (Homo sapiens, UniProt P48729); assay: in vitro kinase assay, CK1α; assay type: biochemical; details: 10 µM inhibitor, initial screening
Sequence of CK1α (P48729 whole entry): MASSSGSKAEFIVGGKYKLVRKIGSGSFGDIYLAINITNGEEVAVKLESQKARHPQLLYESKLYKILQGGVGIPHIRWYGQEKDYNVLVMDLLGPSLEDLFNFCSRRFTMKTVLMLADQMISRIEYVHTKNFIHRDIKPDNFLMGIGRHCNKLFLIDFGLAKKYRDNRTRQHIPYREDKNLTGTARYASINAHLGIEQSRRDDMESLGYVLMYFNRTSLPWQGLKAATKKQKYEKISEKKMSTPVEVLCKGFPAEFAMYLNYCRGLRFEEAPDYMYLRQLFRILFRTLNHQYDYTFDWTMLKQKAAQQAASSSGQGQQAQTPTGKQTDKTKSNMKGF

parental HeLa cells = assay: MTT viability assay, parental HeLa cells; assay type: cell-based; details: 25 μM, 48 h
Method: as §1, with “For selection of stably transfected clones, transfected cells were grown in selective medium, containing 0.6 mg/mL of G-418 (Calbiochem-Merck Millipore, Darmstadt, Germany).” left out
(§5) For performing MTT viability assays, cells were seeded in a 96-well plate (5 × 10^4 cells/well for HeLa cells (parental, CK1δ^−/−, or CK1δ^−/− cells stably transfected with wild type or mutant CK1δ), HCT-116, and HT-29 cells or 7.5 × 10^4 cell/well for SW480 and SW620 cells). […] Absorbance was measured at 570 nm with TriStar^2 LB942 Microplate Reader (Berthold Technologies, Bad Wildbad, Germany) and data analysis was performed using GraphPad Prism 6 (GraphPad Software, San Diego, CA, USA).

[1] = target: CK1δ wild type (GST-CK1δ) (Homo sapiens, UniProt P48730); assay: in vitro kinase assay, GST-CK1δ wild type; assay type: biochemical; details: for Kinase activity of CK1δ in presence of inhibitor: 10 µM inhibitor, initial screening; for IC50: dilution series 0.005−10 µM, mean ± standard error, triplicate
Sequence of CK1δ wild type (GST-CK1δ) (P48730 whole entry): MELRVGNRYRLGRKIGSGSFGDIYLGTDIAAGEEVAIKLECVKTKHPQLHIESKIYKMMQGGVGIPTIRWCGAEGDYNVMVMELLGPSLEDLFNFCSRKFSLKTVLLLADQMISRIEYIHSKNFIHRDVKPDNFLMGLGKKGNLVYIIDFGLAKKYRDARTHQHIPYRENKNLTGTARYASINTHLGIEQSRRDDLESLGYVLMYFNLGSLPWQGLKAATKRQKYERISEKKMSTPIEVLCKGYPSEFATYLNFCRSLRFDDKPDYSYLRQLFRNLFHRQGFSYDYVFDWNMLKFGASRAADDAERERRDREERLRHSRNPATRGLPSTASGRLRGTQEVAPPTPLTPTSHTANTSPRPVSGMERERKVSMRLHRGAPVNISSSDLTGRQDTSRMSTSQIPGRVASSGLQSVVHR
Method: as §3, §4

CK1δ T67S = target: T2, CK1δ T67S (Homo sapiens, UniProt P48730, T67S); assay: in vitro kinase assay, CK1δ mutant T67S; assay type: biochemical; details: 10 µM inhibitor, Figure 5a
T2 sequence (P48730 1-415 T67S): T1 sequence (P48730 1-415 R127Q) with T67S, Q127R
Method: as §3, §4

CK1ε = CK1ε (Homo sapiens, UniProt P49674); assay: in vitro kinase assay, CK1ε; assay type: biochemical; details: 10 µM inhibitor, initial screening
Sequence of CK1ε (P49674 whole entry): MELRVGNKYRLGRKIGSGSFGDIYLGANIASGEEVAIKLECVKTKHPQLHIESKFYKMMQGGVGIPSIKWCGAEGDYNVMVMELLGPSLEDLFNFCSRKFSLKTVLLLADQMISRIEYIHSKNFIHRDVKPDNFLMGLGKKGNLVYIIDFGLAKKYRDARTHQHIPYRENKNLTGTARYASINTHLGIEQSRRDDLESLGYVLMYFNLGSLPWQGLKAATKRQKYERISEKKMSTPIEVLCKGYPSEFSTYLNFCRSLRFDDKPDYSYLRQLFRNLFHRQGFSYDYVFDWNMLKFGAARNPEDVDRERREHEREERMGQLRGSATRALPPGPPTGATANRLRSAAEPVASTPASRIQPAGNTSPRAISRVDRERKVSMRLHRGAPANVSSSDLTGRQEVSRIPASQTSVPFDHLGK

CK1γ = assay: in vitro kinase assay, CK1γ; assay type: biochemical; details: 10 µM inhibitor, initial screening
[2] = system: HeLa CK1δ−/− cells expressing CK1δ T67S; assay: MTT viability assay, HeLa CK1δ−/− cells expressing CK1δ T67S; assay type: cell-based; details: 10 μM, 48 h
Method: as §1, with “For selection of stably transfected clones, transfected cells were grown in selective medium, containing 0.6 mg/mL of G-418 (Calbiochem-Merck Millipore, Darmstadt, Germany).” left out
as §5

[3] = system: HeLa CK1δ−/− cells expressing CK1δ R127Q; assay: MTT viability assay, HeLa CK1δ−/− cells expressing CK1δ R127Q; assay type: cell-based; details: 10 μM, 48 h, difference not statistically significant
Method: as §1, with “For selection of stably transfected clones, transfected cells were grown in selective medium, containing 0.6 mg/mL of G-418 (Calbiochem-Merck Millipore, Darmstadt, Germany).” left out
as §5

CK1δ R168H = target: T3, CK1δ R168H (Homo sapiens, UniProt P48730, R168H); assay: in vitro kinase assay, CK1δ mutant R168H; assay type: biochemical; details: 10 µM inhibitor, among 16-19, Figure 5c
T3 sequence (P48730 1-415 R168H): T1 sequence (P48730 1-415 R127Q) with Q127R, R168H
Method: as §3, §4

[4] = system: HeLa CK1δ+/+ cells (HeLa CK1δ−/− stably transfected with CK1δ); assay: MTT viability assay, HeLa CK1δ+/+ cells; assay type: cell-based; details: 48 h; for Cell viability of CK1δ-expressing cells (HeLa parental or CK1δ+/+) compared to CK1δ-deficient cells (HeLa CK1δ−/−): 25 μM
Method: as §1, §2

[5] = system: HeLa CK1δ−/− cells expressing CK1δ R168H; assay: MTT viability assay, HeLa CK1δ−/− cells expressing CK1δ R168H; assay type: cell-based; details: 10 μM, 48 h
Method: as §1, with “For selection of stably transfected clones, transfected cells were grown in selective medium, containing 0.6 mg/mL of G-418 (Calbiochem-Merck Millipore, Darmstadt, Germany).” left out
as §5

HT-29 colon cancer cells = assay: MTT viability assay, HT-29; assay type: cell-based; details: 10 µM, 48 h, initial screening (Figure 10a)
Method: as §1, §2

SW480 colon cancer cells = assay: MTT viability assay, SW480; assay type: cell-based, human; details: 10 µM, 48 h, initial screening (Figure 10a)
Method: as §1, §2

SW620 colon cancer cells = assay: MTT viability assay, SW620; assay type: cell-based, human; details: 48 h
Method: as §1, §2

SMILES: O=C(CSc1nccc(=O)n1-c1ccccc1)Nc1nc2ccc(C(F)(F)F)cc2s1 [Compound 16, 2-((3-Phenyl-4-oxo-3,4-dihydropyrimidin-2-yl)thio)-N-(6-(trifluoromethyl)benzo-[d]thiazol-2-yl)acetamide]
- Effects on cell viability of CK1δ−/− cells compared to parental and/or CK1δ+/+ cells (HeLa CK1δ−/− cells): not reduced
- Inhibition of CK1δ R127Q kinase activity compared to wild type CK1δ (CK1δ R127Q): significantly stronger inhibited
- Kinase activity of CK1α in presence of inhibitor (CK1α): not affected
- Effects on cell viability of parental HeLa cells, compared with compounds 18 and 19 (parental HeLa cells): less pronounced
- Kinase activity of CK1δ in presence of inhibitor [1]: strongly inhibited
- IC50 [1]: 2000 nM
- Inhibition of CK1δ T67S compared to wild type CK1δ (CK1δ T67S): slightly stronger
- Kinase activity of CK1ε in presence of inhibitor (CK1ε): strongly inhibited
- Kinase activity of CK1γ in presence of inhibitor (CK1γ): not affected

SMILES: COc1ccc(OC)c(-n2c(SCC(=O)Nc3nc4ccc(C(F)(F)F)cc4s3)nccc2=O)c1 [Compound 17, 2-((3-(2,5-Dimethoxyphenyl)-4-oxo-3,4-dihydropyrimidin-2-yl)thio)-N-(6-(trifluoromethyl)benzo[d]thiazol-2-yl)acetamide]
- Effects on cell viability of CK1δ−/− cells compared to parental and/or CK1δ+/+ cells (HeLa CK1δ−/− cells): not reduced
- Kinase activity of CK1α in presence of inhibitor (CK1α): not affected
- Effects on cell viability of parental HeLa cells, compared with compounds 18 and 19 (parental HeLa cells): less pronounced
- Kinase activity of CK1δ in presence of inhibitor [1]: strongly inhibited
- Inhibition of CK1δ T67S compared to wild type CK1δ (CK1δ T67S): slightly stronger
- Kinase activity of CK1ε in presence of inhibitor (CK1ε): strongly inhibited
- Kinase activity of CK1γ in presence of inhibitor (CK1γ): not affected

SMILES: COc1ccc(-n2c(SCC(=O)Nc3nc4ccc(C(F)(F)F)cc4s3)nccc2=O)c(OC)c1 [Compound 18, 2-((3-(2,4-Dimethoxyphenyl)-4-oxo-3,4-dihydropyrimidin-2-yl)thio)-N-(6-(trifluoromethyl)benzo[d]thiazol-2-yl)acetamide]
- EC50 (HeLa CK1δ−/− cells; CK1, 0.313-70 µM, read-out: EC50 (CK1δ−/−), cell viability): 18.5 µM
- Effects on cell viability of CK1δ T67S-expressing HeLa cells vs CK1δ WT-expressing cells [2]: stronger effects
- Effects on cell viability of CK1δ R127Q-expressing HeLa cells vs CK1δ WT-expressing cells [3]: stronger effects
- Kinase activity of CK1α in presence of inhibitor (CK1α): not affected
- Kinase activity of CK1δ in presence of inhibitor [1]: strongly inhibited
- IC50 [1]: 1700 nM
- Inhibition of CK1δ T67S compared to wild type CK1δ (CK1δ T67S): slightly stronger
- Effects on CK1δ R168H activity (CK1δ R168H): strongest effects
- Cell viability of CK1δ-expressing cells (HeLa parental or CK1δ+/+) compared to CK1δ-deficient cells (HeLa CK1δ−/−) [4]: more reduced
- EC50 ([4]; CK1, 0.313-70 µM, read-out: EC50 (CK1δ+/+), cell viability): 7.4 µM
- Effects on cell viability of CK1δ R168H-expressing HeLa cells vs CK1δ WT-expressing cells [5]: stronger effects
- Kinase activity of CK1ε in presence of inhibitor (CK1ε): strongly inhibited
- Kinase activity of CK1γ in presence of inhibitor (CK1γ): not affected

SMILES: COc1cc(OC)cc(-n2c(SCC(=O)Nc3nc4ccc(C(F)(F)F)cc4s3)nccc2=O)c1 [Compound 19, 2-((3-(3,5-Dimethoxyphenyl)-4-oxo-3,4-dihydropyrimidin-2-yl)thio)-N-(6-(trifluoromethyl)benzo[d]thiazol-2-yl)acetamide]
- Kinase activity of CK1α in presence of inhibitor (CK1α): not affected
- Kinase activity of CK1δ in presence of inhibitor [1]: strongly inhibited
- Cell viability of CK1δ-expressing cells (HeLa parental or CK1δ+/+) compared to CK1δ-deficient cells (HeLa CK1δ−/−) [4]: more reduced
- Kinase activity of CK1ε in presence of inhibitor (CK1ε): strongly inhibited
- Kinase activity of CK1γ in presence of inhibitor (CK1γ): not affected

SMILES: O=C(CSc1nccc(=O)n1Cc1ccc(C(F)(F)F)cc1)Nc1nc2ccc(C(F)(F)F)cc2s1 [Compound 21, 2-((3-(4-Trifluoromethylbenzyl)-4-oxo-3,4-dihydropyrimidin-2-yl)thio)-N-(6-(trifluoromethyl)benzo[d]thiazol-2-yl)acetamide]
- Reduction of CK1α activity (CK1α): at least 50%
- Kinase activity of CK1δ in presence of inhibitor [1]: strongly inhibited
- IC50 [1]: 120 nM
- Reduction of cell viability, HT-29 (HT-29 colon cancer cells): minor changes
- Reduction of cell viability, SW480 (SW480 colon cancer cells): minor changes
- Reduction of cell viability, SW620 (SW620 colon cancer cells; 10 µM, initial screening (Figure 10a)): ~50%
- Dose-dependent effects on SW620 cell viability (SW620 colon cancer cells; 0.625 to 20 µM, MTT (Figure S2)): only visible at the highest concentrations tested
- Kinase activity of CK1ε in presence of inhibitor (CK1ε): strongly inhibited
- Kinase activity of CK1γ in presence of inhibitor (CK1γ): not affected
